Legend:
Type in all cases: cell-based
Human aortic SMCs [1] = assay: Morphological analysis of human aortic SMCs after one day incubation with drug; conditions: FIG. 12; for morphological changes observed in a 40× microscope field: one day incubation, 100 nM and 500 nM TSA, 10 nM RPM, 50 nM Paclitaxel
Procedure: (§1) Human aortic SMCs were obtained from BioWhittaker Molecular Applications, Inc. (Clonetics, CC-2571), cultured in Smooth Muscle Medium-2 (BioWhittaker Molecular Applications, Inc., CC-3182), and maintained at 37° C. in humidified 95% air/5% CO2. Human aortic SMCs of passages 8-9 were used in the following experiments.
(§2) Human aortic SMCs cells were seeded, at a density of 6×10^3 cells/well, in a 24-well plate (about 3×10^3 cells/cm^2, quadruplicates). Following cell attachment for 24 hours, the above drugs were added to the cells, to achieve the following final concentrations: 100 nM and 500 nM of TSA, 10 nM of RPM, and 50 nM of Paclitaxel.
Following a one day incubation with the drug, the morphological changes in the cells were evaluated under a microscope.

Human aortic SMCs [2] = assay: MTT assay of cell proliferation
Procedure: as §1
(§3) Cell proliferation was measured by MTT assay and cell counting.
as §2
Following three additional days of incubation, 50 μl MTT (methylthiazoletetrazolium, 5 mg/ml in sterile H2O) were added in 0.5 ml medium to each well, and the cells were incubated at 37° C. for 4 hours. The medium was then aspirated, and the cells were dissolved in 300 μl 0.1 N HCl/isopropanol, mixed thoroughly, and a 100 μl portion of the mixture was transferred into a 96-well plate;
The 96-well plate was applied to a micro-plate reader and the absorbance at 570 nm was read. The average reading of wells containing only medium was set as the Control. For each sample, the proliferation rate was determined by the following equation: (Reading/Control)×100=Proliferation Rate (% of Control).

Human aortic SMCs [3] = assay: Cell counting (growth curves); conditions: 50 nM TSA; days 0-14, medium with TSA replaced every 2-3 days; vs control cells; FIG. 14
Procedure: as §1, §3
Human aortic SMCs cells were seeded, at a density of […], in a 24-well plate (about 1.5×10^3 cells/cm^2, in triplicates). Following cell attachment for 24 hours, TSA was added to achieve a final concentration of 50 nM.
Every 2-3 days, the medium was removed and replaced with a fresh medium containing TSA. Control cells were treated with medium without TSA.
On days 0, 1, 2, 3, 6, 9, and 14 post-treatment, the cells were trypsinized and counted with a hemacytometer.

CC(=O)O[C@H]1C(=O)[C@@]2(C)[C@H]([C@H](OC(=O)c3ccccc3)[C@]3(O)C[C@H](OC(=O)[C@H](O)[C@@H](NC(=O)c4ccccc4)c4ccccc4)C(C)=C1C3(C)C)[C@]1(OC(C)=O)CO[C@@H]1C[C@@H]2O [Paclitaxel]
morphological changes observed in a 40× microscope field (Human aortic SMCs [1]): Rounded up pro-apoptotic cells appeared
cytotoxicity on SMCs (Human aortic SMCs [2]; 50 nM Paclitaxel, before the application of MTT assay): high cytotoxicity on SMCs and caused cell death

CC(/C=C/C(=O)NO)=C\[C@@H](C)C(=O)c1ccc(N(C)C)cc1 [TSA, Trichostatin A]
nature of the inhibitory effect on SMCs (Human aortic SMCs [1]; concluded from the morphological analysis): mainly cytostatic
morphological changes observed in a 40× microscope field (Human aortic SMCs [1]): No morphological changes
inhibitory effect on the growth of the human SMCs (proliferation rate, MTT) (Human aortic SMCs [2]; 100 nM TSA and 500 nM TSA, four days incubation, FIG. 13): inhibits SMC proliferation in vitro in a dose-dependent mainer
continuous effect on SMCs growth (growth curves, cell counting) (Human aortic SMCs [3]): significant inhibitory effect
